We go through two compounds from ChEMBL document CHEMBL1201862, “PubChem BioAssay data set” (2004).

Calls of active or inactive are those of the source.

For assay [1], the target named is cAMP-dependent protein kinase catalytic subunit PRKX (Homo sapiens, UniProt P51817). The class given is functional.
Assay [2] addresses Serine/threonine-protein kinase Chk1 (Homo sapiens, UniProt O14757). The class given is functional.
Assay [3] has as its target Macrophage colony-stimulating factor 1 receptor (Homo sapiens, UniProt P07333). The class given is functional.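 Also: value comes from the Navigating the Kinome screening panel, CSF1R member.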
In assay [4] the target is Serine/threonine-protein kinase pim-1 (Homo sapiens, UniProt P11309). It is filed as functional.
Assay [5] addresses T1, RNA-binding protein pos-1 (Caenorhabditis elegans, UniProt G5EF15).
T1 sequence (G5EF15 whole entry): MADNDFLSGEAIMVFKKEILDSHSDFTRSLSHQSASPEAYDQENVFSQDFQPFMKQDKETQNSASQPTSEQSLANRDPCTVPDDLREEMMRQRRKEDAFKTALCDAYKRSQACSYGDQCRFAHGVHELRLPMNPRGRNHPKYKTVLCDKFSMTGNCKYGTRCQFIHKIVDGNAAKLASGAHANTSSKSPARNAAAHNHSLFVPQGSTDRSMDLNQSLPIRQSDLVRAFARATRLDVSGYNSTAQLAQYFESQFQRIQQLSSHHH
The assay is described as follows: disruptors of C. elegans POS-1 RNA interaction – biochemical, fluorescence polarization, dose response (AID 1964).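 Also: purified POS-1 fused to maltose binding protein made in E. coli; potency of compounds blocking POS-1 binding to fluorescent RNA.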

Sequence of cAMP-dependent protein kinase catalytic subunit PRKX (P51817 whole entry): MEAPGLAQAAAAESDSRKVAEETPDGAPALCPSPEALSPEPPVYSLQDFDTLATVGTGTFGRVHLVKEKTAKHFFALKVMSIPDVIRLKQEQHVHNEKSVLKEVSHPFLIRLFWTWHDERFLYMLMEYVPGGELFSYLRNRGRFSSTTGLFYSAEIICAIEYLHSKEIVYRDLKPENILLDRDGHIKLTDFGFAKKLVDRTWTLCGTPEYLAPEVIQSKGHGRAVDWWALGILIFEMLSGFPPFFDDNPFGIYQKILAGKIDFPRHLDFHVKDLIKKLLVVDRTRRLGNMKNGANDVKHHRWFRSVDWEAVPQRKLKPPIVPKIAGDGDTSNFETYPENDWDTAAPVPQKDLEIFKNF
Sequence of Serine/threonine-protein kinase pim-1 (P11309 whole entry): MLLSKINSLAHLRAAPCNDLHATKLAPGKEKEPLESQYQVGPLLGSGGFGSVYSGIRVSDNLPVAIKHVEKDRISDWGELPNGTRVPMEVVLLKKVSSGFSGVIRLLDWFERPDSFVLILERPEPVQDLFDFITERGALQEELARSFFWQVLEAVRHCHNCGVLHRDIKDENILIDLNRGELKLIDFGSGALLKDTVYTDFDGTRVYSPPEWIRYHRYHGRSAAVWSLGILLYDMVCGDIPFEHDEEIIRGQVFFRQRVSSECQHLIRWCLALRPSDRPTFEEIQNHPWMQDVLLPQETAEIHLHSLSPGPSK
Sequence of Macrophage colony-stimulating factor 1 receptor (P07333 whole entry): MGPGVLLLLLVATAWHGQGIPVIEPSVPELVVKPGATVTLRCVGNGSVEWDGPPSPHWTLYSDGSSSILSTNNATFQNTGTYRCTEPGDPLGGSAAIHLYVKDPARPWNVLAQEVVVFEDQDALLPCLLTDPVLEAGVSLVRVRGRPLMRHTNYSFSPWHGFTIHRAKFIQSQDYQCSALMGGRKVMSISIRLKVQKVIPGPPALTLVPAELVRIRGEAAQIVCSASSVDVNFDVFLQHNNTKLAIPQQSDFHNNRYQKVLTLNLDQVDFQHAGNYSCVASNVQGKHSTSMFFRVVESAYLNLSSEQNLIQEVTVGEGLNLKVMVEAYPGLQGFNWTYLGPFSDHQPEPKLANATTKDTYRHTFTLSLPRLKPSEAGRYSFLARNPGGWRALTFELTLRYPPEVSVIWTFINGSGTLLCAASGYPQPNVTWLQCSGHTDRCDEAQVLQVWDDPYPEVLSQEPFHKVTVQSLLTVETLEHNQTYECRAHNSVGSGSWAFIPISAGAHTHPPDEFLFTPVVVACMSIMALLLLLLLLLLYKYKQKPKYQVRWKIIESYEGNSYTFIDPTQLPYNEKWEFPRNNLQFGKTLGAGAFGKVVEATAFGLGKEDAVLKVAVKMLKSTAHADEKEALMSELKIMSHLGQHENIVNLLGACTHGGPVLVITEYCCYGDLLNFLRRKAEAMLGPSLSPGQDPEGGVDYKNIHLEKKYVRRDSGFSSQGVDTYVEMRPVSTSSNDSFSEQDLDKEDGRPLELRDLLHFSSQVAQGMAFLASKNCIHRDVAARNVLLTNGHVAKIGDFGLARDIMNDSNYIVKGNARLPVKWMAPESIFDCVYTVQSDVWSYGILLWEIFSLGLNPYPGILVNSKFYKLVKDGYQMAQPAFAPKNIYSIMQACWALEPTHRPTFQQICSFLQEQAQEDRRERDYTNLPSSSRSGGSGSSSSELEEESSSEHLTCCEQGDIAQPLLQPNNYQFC
Sequence of Serine/threonine-protein kinase Chk1 (O14757 whole entry): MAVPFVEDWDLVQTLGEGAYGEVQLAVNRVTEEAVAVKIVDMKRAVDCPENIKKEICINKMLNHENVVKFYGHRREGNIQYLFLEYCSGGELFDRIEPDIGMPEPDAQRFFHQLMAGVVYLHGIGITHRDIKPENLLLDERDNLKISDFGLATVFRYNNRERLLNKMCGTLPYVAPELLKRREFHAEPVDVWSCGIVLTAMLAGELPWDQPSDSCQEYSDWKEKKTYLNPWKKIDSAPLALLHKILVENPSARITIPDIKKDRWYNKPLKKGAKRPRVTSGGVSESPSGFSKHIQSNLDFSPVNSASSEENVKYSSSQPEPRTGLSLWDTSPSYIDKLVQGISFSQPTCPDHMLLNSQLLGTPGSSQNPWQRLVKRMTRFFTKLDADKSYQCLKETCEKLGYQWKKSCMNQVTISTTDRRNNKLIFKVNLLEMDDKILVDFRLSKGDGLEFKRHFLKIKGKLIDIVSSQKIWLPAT

With `Clc1cc(NC2CCCCC2)nc(-c2c[nH]c3ncccc23)n1`, the Ki in assay [1] was 501 nM (active); in assay [2], 1000 nM (active); in assay [3] it was > 1580 nM (inactive); in assay [4], > 3980 nM (inactive).

For the compound `Cc1ccc(/C=C2/C(=O)c3ccc(C(=O)O)cc3C2=O)o1`, the EC50 in assay [5] was 87700 nM (active).
